In the supplement of paper PMC10307832:

Columns and labels:
Experiment in all cases: relative viability (nuclei count vs DMSO), 5 days (fraction); higher = more cells survive
201T = test system: 201T
Procedure, shortened: (§1)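 The day after seeding in 1536-well plates, lung cancer cell lines were treated by pin tool with a single drug, or with a fixed anchor-drug dose together with five library-drug doses (not always all listed) in √10 steps. After 5 days, a combined fix-and-stain solution (final 0.05% Triton X-100, 1% formaldehyde, 1 ug/ml Hoechst) was added. Nuclei counted on 4× images gave relative viability as treated counts over vehicle counts, reported as the median of duplicate plates.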

A-427 = test system: A-427
Procedure, shortened: as §1

ABC-1 = test system: ABC-1
Procedure, shortened: as §1

BEN = test system: BEN
Procedure, shortened: as §1

CAL-12T = test system: CAL-12T
Procedure, shortened: as §1

H3255 = test system: H3255
Procedure, shortened: as §1

HCC-15 = test system: HCC-15
Procedure, shortened: as §1

LC-2-ad = test system: LC-2-ad
Procedure, shortened: as §1

LCLC-97TM1 = test system: LCLC-97TM1
Procedure, shortened: as §1

NCI-H1650 = test system: NCI-H1650
Procedure, shortened: as §1

NCI-H1651 = test system: NCI-H1651
Procedure, shortened: as §1

NCI-H1792 = test system: NCI-H1792
Procedure, shortened: as §1

NCI-H1915 = test system: NCI-H1915
Procedure, shortened: as §1

NCI-H1944 = test system: NCI-H1944
Procedure, shortened: as §1

NCI-H2023 = test system: NCI-H2023
Procedure, shortened: as §1

NCI-H2087 = test system: NCI-H2087
Procedure, shortened: as §1

NCI-H441 = test system: NCI-H441
Procedure, shortened: as §1

NCI-H460 = test system: NCI-H460
Procedure, shortened: as §1

NCI-H520 = test system: NCI-H520
Procedure, shortened: as §1

NCI-H596 = test system: NCI-H596
Procedure, shortened: as §1

NCI-H650 = test system: NCI-H650
Procedure, shortened: as §1

NCI-H661 = test system: NCI-H661
Procedure, shortened: as §1

NCI-H727 = test system: NCI-H727
Procedure, shortened: as §1

PC-3 [JPC-3] = test system: PC-3 [JPC-3]
Procedure, shortened: as §1

`C[C@@H]1CN(CC(=O)Nc2ccc3c(c2)Cc2cccc(-c4cc(=O)cc(N5CCOCC5)o4)c2S3)C[C@H](C)O1` + CCNC(=O)c1noc(-c2cc(C(C)C)c(O)cc2O)c1-c1ccc(CN2CCOCC2)cc1 [Luminespib] (partner 0.01 µM) gave a relative viability (201T; first compound 0.04 µM) of 1.06, a relative viability (201T; first compound 0.1265 µM) of 1.05 and a relative viability (201T; first compound 0.4 µM) of 1.04. For the same molecule, the relative viability (201T; first compound 4 µM) was 1.01, the relative viability (A-427; first compound 0.1265 µM) was 0.884 and the relative viability (A-427; first compound 0.4 µM) was 1.02. For the same molecule, the relative viability (A-427; first compound 4 µM) was 1.02, the relative viability (ABC-1; first compound 0.1265 µM) was 0.64 and the relative viability (ABC-1; first compound 0.4 µM) was 0.633. For the same molecule, the relative viability (ABC-1; first compound 4 µM) was 0.521, the relative viability (BEN; first compound 0.04 µM) was 0.264 and the relative viability (BEN; first compound 0.1265 µM) was 0.252. It also gave a relative viability (BEN; first compound 0.4 µM) of 0.463, a relative viability (BEN; first compound 4 µM) of 0.322 and a relative viability (CAL-12T; first compound 0.04 µM) of 0.302. For the same molecule, the relative viability (CAL-12T; first compound 0.1265 µM) was 0.408, the relative viability (CAL-12T; first compound 0.4 µM) was 0.613 and the relative viability (CAL-12T; first compound 4 µM) was 0.168. The relative viability (H3255; first compound 0.04 µM) was 0.952, the relative viability (H3255; first compound 0.1265 µM) was 0.767 and the relative viability (H3255; first compound 0.4 µM) was 0.912. It also gave a relative viability (H3255; first compound 4 µM) of 0.881, a relative viability (HCC-15; first compound 0.04 µM) of 0.358 and a relative viability (HCC-15; first compound 0.1265 µM) of 0.282. It also gave a relative viability (HCC-15; first compound 0.4 µM) of 0.284, a relative viability (HCC-15; first compound 4 µM) of 0.27 and a relative viability (LC-2-ad; first compound 0.04 µM) of 0.986. It also gave a relative viability (LC-2-ad; first compound 0.1265 µM) of 0.912, a relative viability (LC-2-ad; first compound 0.4 µM) of 0.979 and a relative viability (LC-2-ad; first compound 4 µM) of 0.953. For the same molecule, the relative viability (LCLC-97TM1; first compound 0.04 µM) was 0.657, the relative viability (LCLC-97TM1; first compound 0.1265 µM) was 0.828 and the relative viability (LCLC-97TM1; first compound 0.4 µM) was 0.749. For the same molecule, the relative viability (LCLC-97TM1; first compound 4 µM) was 0.813, the relative viability (NCI-H1650; first compound 0.04 µM) was 0.212 and the relative viability (NCI-H1650; first compound 0.1265 µM) was 0.23. The relative viability (NCI-H1650; first compound 0.4 µM) was 0.18, the relative viability (NCI-H1650; first compound 4 µM) was 0.171 and the relative viability (NCI-H1651; first compound 0.04 µM) was 0.891. The relative viability (NCI-H1651; first compound 0.1265 µM) was 0.719, the relative viability (NCI-H1651; first compound 0.4 µM) was 0.885 and the relative viability (NCI-H1651; first compound 4 µM) was 0.634. The relative viability (NCI-H1792; first compound 0.04 µM) was 0.385, the relative viability (NCI-H1792; first compound 0.1265 µM) was 0.493 and the relative viability (NCI-H1792; first compound 0.4 µM) was 0.399. It also gave a relative viability (NCI-H1792; first compound 4 µM) of 0.333, a relative viability (NCI-H1915; first compound 0.04 µM) of 0.761 and a relative viability (NCI-H1915; first compound 0.1265 µM) of 0.686. The relative viability (NCI-H1915; first compound 0.4 µM) was 0.756, the relative viability (NCI-H1915; first compound 4 µM) was 0.68 and the relative viability (NCI-H1944; first compound 0.04 µM) was 0.676. For the same molecule, the relative viability (NCI-H1944; first compound 0.1265 µM) was 0.729, the relative viability (NCI-H1944; first compound 0.4 µM) was 0.938 and the relative viability (NCI-H1944; first compound 4 µM) was 0.824. The relative viability (NCI-H2023; first compound 0.04 µM) was 0.691, the relative viability (NCI-H2023; first compound 0.1265 µM) was 0.75 and the relative viability (NCI-H2023; first compound 0.4 µM) was 0.543. It also gave a relative viability (NCI-H2023; first compound 4 µM) of 0.37, a relative viability (NCI-H2087; first compound 0.04 µM) of 0.217 and a relative viability (NCI-H2087; first compound 0.1265 µM) of 0.188. For the same molecule, the relative viability (NCI-H2087; first compound 0.4 µM) was 0.207, the relative viability (NCI-H2087; first compound 4 µM) was 0.168 and the relative viability (NCI-H441; first compound 0.04 µM) was 0.305. It also gave a relative viability (NCI-H441; first compound 0.1265 µM) of 0.354, a relative viability (NCI-H441; first compound 0.4 µM) of 0.274 and a relative viability (NCI-H441; first compound 4 µM) of 0.309. For the same molecule, the relative viability (NCI-H460; first compound 0.04 µM) was 0.0317, the relative viability (NCI-H460; first compound 0.1265 µM) was 0.0406 and the relative viability (NCI-H460; first compound 0.4 µM) was 0.0348. For the same molecule, the relative viability (NCI-H460; first compound 4 µM) was 0.0326, the relative viability (NCI-H520; first compound 0.04 µM) was 0.249 and the relative viability (NCI-H520; first compound 0.1265 µM) was 0.256. For the same molecule, the relative viability (NCI-H520; first compound 0.4 µM) was 0.224, the relative viability (NCI-H520; first compound 4 µM) was 0.221 and the relative viability (NCI-H596; first compound 0.04 µM) was 1.16. For the same molecule, the relative viability (NCI-H596; first compound 0.1265 µM) was 1.18, the relative viability (NCI-H596; first compound 0.4 µM) was 0.921 and the relative viability (NCI-H596; first compound 4 µM) was 0.964. For the same molecule, the relative viability (NCI-H650; first compound 0.04 µM) was 0.836, the relative viability (NCI-H650; first compound 0.1265 µM) was 0.827 and the relative viability (NCI-H650; first compound 0.4 µM) was 0.831. The relative viability (NCI-H650; first compound 4 µM) was 0.738, the relative viability (NCI-H661; first compound 0.04 µM) was 0.964 and the relative viability (NCI-H661; first compound 0.1265 µM) was 0.938. It also gave a relative viability (NCI-H661; first compound 0.4 µM) of 0.97, a relative viability (NCI-H661; first compound 4 µM) of 0.813 and a relative viability (NCI-H727; first compound 0.04 µM) of 0.362. For the same molecule, the relative viability (NCI-H727; first compound 0.1265 µM) was 0.603, the relative viability (NCI-H727; first compound 0.4 µM) was 0.37 and the relative viability (NCI-H727; first compound 4 µM) was 0.388. It also gave a relative viability (PC-3 [JPC-3]; first compound 0.04 µM) of 0.744, a relative viability (PC-3 [JPC-3]; first compound 0.1265 µM) of 0.684 and a relative viability (PC-3 [JPC-3]; first compound 0.4 µM) of 0.728. It also gave a relative viability (PC-3 [JPC-3]; first compound 4 µM) of 0.605.
